Test results reported in US7081984B1, “Non-linear optical devices and materials therefor” (Qinetiq Limited, priority 1999, dated 2006).
Entries after “also recorded” stand apart in the source; their conditions may differ. Where two headings read alike, the source gives them in different places.

What was measured:
[1] = Crystal stability on storage; type: physicochemical; conditions: on standing after removal from growing solution or in sealed container
[2] = Initial screening of SHG response of powdered samples at 1064 nm; type: physicochemical; conditions: ungraded powder between glass plates, pulsed Nd:YAG laser 1064 nm, green light judged by eye against ungraded urea or ADP
Excerpt: Samples of all of the materials prepared as described above were first subjected to an initial screening with the results shown in Table 1. For this examination ungraded (as to size) powdered samples of each material were sandwiched between two glass plates which were then held in the path of a pulsed Nd:YAG laser operating at 1064 nm. (Model SL804 from Spectron Laser Systems Ltd). The SHG response was judged by viewing the intensity of green light generated (viewed through laser goggles which passed green light but stopped the fundamental 1064 nm radiation). The SHG activity was qualitatively compared to that of a reference sample which was either ungraded urea or ammonium dihydrogen phosphate (ADP).

[3] = Kurtz and Perry assessment of phase matching properties; type: physicochemical; conditions: graded powders 550 μm to 40 μm, 12 ns pulses at 1064 nm, fixed input pulse energy
Protocol: The phase matching properties of those more promising materials which performed well in the initial screening have been evaluated using the well established Kurtz and Perry technique (J Appl Phys, 1968, 39, 3798). In this method the SHG intensity (λ=532 nm) is measured as a function of the particle size for a fixed input pulse energy. […] The consequence of this is that the harmonic fields can build up in amplitude thus making the material more desirable for SHG applications.
To perform the Kurtz and Perry test powdered samples of the materials were graded using a mechanical shaker set up with a set of standard sieves (550 μm to 40 μm). The graded powders were then mounted in a thin aluminium holder placed between two glass slides. The following criteria was used to ensure the validity of the method: r<L<D where, • r=average particle size • L=thickness of the powdered sample (i.e. thickness of the aluminium spacer) • D=diameter of the laser beam incident on the sample. In the present experiments, there was at least an order of magnitude difference between these parameters.
The same laser as before was used to provide 12 ns FWHM pulses at 1064 nm. […] The magnitude of the SHG signal was measured as the number of counts using an Optical Multichannel Analyser (OMA) with an intensified array. This was preferred to a photomultiplier tube as it enabled the presence of any fluorescence or abnormal spectral emissions from the sample, for example due to damage etc., to be determined.

[4] = Protocol: (§1) Crystals of M4 have been grown using the equipment described above, both from ethanol and IPA by reduction of temperature of the saturated solutions (12 g of M4 in 820 ml of ethanol) from 40° C. to 25° C. A seed crystal, which had been previously washed with a solvent was suspended from a stirrer and carefully introduced into the saturated solution. […] Several temperature decay rates were tried.
[5] = crystals grown from solution by lowering temperature
Protocol: Crystals of M4, M35 and M3 were grown from solution by lowering the temperature of the saturated solutions. The crystal growth equipment consists of a heated tank of water into which the vessel containing the saturated solution of the material is held. The glass tank is heated through a UV block filter by an infra-red lamp. The temperature is controlled by a mercury contact thermometer. The glass tank is covered by aluminium foil to exclude UV in sunlight from entering the glass tank.
as §1
The solubility of M35 has been determined in isopropyl alcohol/water (10:1 ratio) mixture over a temperature range of 5° C. to 40° C.

[6] = judged by eye
Excerpt: The capability for novel materials of the invention to achieve frequency doubling into the blue area of the spectrum was examined. The light source for this investigation was a MOPO (Master Oscillator Power Oscillator) model 730-10 pumped by GCR 270-10 Nd:YAG laser (supplied by Spectra Physics). The incident pulse width output from this laser ranged from 4 ns to 6 ns. Light of a specified wavelength was directed onto a sample sandwiched between two plates in a sample holder. In order to determine the energy which was incident on a sample for each test wavelength, the sample holder was movable in and out of the light beam and an energy meter was located behind the sample position so that the light beam would be directed onto the meter when a sample was not in position. The test wavelengths used were 950 nm, 850 nm, 800 nm and 780 nm. The energy meter was a Scientech AD30 meter employing a calorimetric detector type AC2501H supplied by Scientech.
Samples of the M4, M3 and M35 materials were tested for frequency doubling effect at each of the test wavelengths, the performance of each sample being judged qualitatively by eye by examination of the frequency doubled radiation scattered from the sample. These qualatative assessments were compared with that of a similarly prepared sample of urea having the same particle size as the materials of the invention. […] The M3 and M4 samples were ungraded while the M35 sample was a 212–300 μm graded sample.

[7] = transmission spectrum
[8] = wavelength 780 nm, energy 16.7 mJ
[9] = wavelength 800 nm, energy 14.8 mJ
[10] = wavelength 850 nm, energy 12.3 mJ

| Compound | SHG Response [2] | Phase matching (SHG signal level at 532 nm as a function of particle size) [3] | SHG activity of grown crystals [5] | Frequency doubling compared with urea [6, 8] | Frequency doubling compared with urea [6, 9] | Frequency doubling compared with urea [6, 10] | Frequency doubling compared with urea ([6]; wavelength 950 nm, energy 9 mJ) | further results |
| --- | --- | --- | --- | --- | --- | --- | --- | --- |
| thiomorpholinium 4-hydroxybenzoate [TM4] | slightly better than for ADP | – | – | – | – | – | – | Stability of crystals [1]: unstable, with the crystals becoming opaque over time |
| thiomorpholinium 3,5-dihydroxybenzoate [TM35] | slightly better than for urea | – | – | – | – | – | – | – |
| NC(N)=O [urea, reference compound] | – | phase matching materials | – | – | – | – | – | – |
| Morpholinium 4-hydroxybenzoate [Example M4] | better than for urea | does not decrease for increasing particle size | high SHG activity | Slightly less | Slightly less | Slightly less | Better | Relative solubility ([4]; IPA compared with ethanol): less soluble in IPA; Amount in saturated solution ([4]; in 820 ml of ethanol, saturated solution, 40° C.): 12 g |
| dimorpholinium 2,3,5,6-tetrafluoro-4-hydroxybenzoate [Example M24F4] | weaker than that of urea but better than for ADP | – | – | – | – | – | – | – |
| Morpholinium 3-fluoro-4-hydroxybenzoate [Example M3F4] | slightly weaker than that of urea | – | – | – | – | – | – | – |
| Morpholinium 4-hydroxycinnamate [Example M4HCA] | greater than that of urea; also recorded: better than urea | – | – | – | – | – | – | – |
| Morpholinium 3,5-dihydroxybenzoate [Example M35] | slightly better than urea | does not decrease for increasing particle size | high SHG activity | better | slightly less | same or better | same or better | Stability of crystals [1]: stable and do not show any deterioration in quality; Optical transparency limit of single crystal [7]: ≥ 350 mm |
| N.O=P(O)(O)O [ADP, ammonium dihydrogen phosphate, reference compound] | – | phase matching materials | – | – | – | – | – | – |
| Morpholinium 3-hydroxybenzoate [Example M3] | slightly weaker than urea | does not decrease for increasing particle size | exhibit SHG activity | Less | Much less | Less | Slightly less | – |
